Structures are written as SMILES.

These results are taken from patent publication US20240308960A1 (Sumitomo Pharma Co., Ltd., priority 2021, published 2024).

In this test the target is T1, Human orexin receptor type 2 (Homo sapiens, UniProt O43614).
T1 sequence (O43614 1-444): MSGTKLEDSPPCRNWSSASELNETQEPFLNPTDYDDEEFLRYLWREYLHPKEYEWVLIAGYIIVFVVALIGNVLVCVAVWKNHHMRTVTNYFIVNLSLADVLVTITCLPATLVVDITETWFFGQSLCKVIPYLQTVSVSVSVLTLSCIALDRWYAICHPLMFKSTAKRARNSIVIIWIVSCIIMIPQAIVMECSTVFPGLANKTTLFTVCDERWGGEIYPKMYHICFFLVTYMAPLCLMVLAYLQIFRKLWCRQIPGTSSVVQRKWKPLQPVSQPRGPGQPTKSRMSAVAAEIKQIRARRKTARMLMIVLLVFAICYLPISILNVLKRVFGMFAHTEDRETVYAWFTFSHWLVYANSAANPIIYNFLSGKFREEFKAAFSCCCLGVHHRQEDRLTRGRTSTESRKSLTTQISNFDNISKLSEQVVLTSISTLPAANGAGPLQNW
Briefly: Test Example 1: agonist activity for orexin receptor type 2 (aequorin luminescence, intracellular calcium mobilization). Particulars: compound 10 μm; CHO cells transiently expressing human orexin receptor type 2 and apoaequorin; relative percentage of luminescence for the luminescence (100%) of Orexin A (100 μM). (Calcium flux is commonly read through the fluorescence of an indicator in the cells.)
Description: Human orexin receptor type 2 and apoaequorin were transiently expressed in CHO cells, and the agonist activity was evaluated based on intracellular calcium mobilization with ligand stimulation. The CHO cells transiently-expressed human orexin receptor type 2 and apoaequorin were seeded on a 384-well plate by 2,000 cells/well, and then incubated for 16-22 hours. After the plate was returned to room temperature, Coelenterazine hcp (final concentration: 1 μM) was added to the plate, and the plate was allowed to stand at room temperature for 2 hours. And then, Orexin A or each test compound was added to the plate, and the luminescence of the cells was measured with FDSS7000 (Hamamatsu Photonics K. K.), wherein Orexin A and each test compound were dissolved in DMSO (final concentration: 0.1%), and diluted with a buffer (Hanks, 20 mM HEPES, 0.1% BSA). The agonist activity of each test compound for orexin receptor type 2 was calculated as relative percentage of luminescence for the luminescence (100%) of Orexin A (100 μM).
For `CC(C)N1CCN(c2cccc(F)c2NC(=O)N2CCC(C)(c3noc(C4CC4)n3)CC2)CC1` [Example 45, 4-(5-cyclopropyl-1,2,4-oxadiazol-3-yl)-N-{2-fluoro-6-[4-(propan-2-yl)piperazin-1-yl]phenyl}-4-methylpiperidine-1-carboxamide], the “Agonist Activity (%)” value worked out at 127%.

`CC(C)N1CCN(c2cccc(F)c2NC(=O)N2CCC(C)(c3noc(C4(C)CC4)n3)CC2)CC1` [Example 79, N-{2-fluoro-6-[4-(propan-2-yl)piperazin-1-yl]phenyl}-4-methyl-4-[5-(1-methylcyclopropyl)-1,2,4-oxadiazol-3-yl]piperidine-1-carboxamide]: the “Agonist Activity (%)” value worked out at 156%.

As to `Cc1nnc(C2(C)CCN(C(=O)Nc3ccccc3N3CCN(C(C)C)CC3)CC2)o1` [Example 165, 4-Methyl-4-(5-methyl-1,3,4-oxadiazol-2-yl)-N-{2-[4-(propan-2-yl)piperazin-1-yl]phenyl}piperidine-1-carboxamide], the “Agonist Activity (%)” value came to 96%.

In the case of `CC(C)N1CCN(c2cccc(F)c2NC(=O)N2C3CCC2CC(c2nc(C4CC4)no2)C3)CC1` (stereo not drawn) [Example 32, 3-(3-cyclopropyl-1,2,4-oxadiazol-5-yl)-N-{2-fluoro-6-[4-(propan-2-yl)piperazin-1-yl]phenyl}-8-azabicyclo[3.2.1]octane-8-carboxamide], the “Agonist Activity (%)” value was found to be 30%.

Take `CC(C)c1nc(C2(C)CCN(C(=O)Nc3ccccc3N3CCN(C(C)C)CC3)CC2)no1` [Example 19, 4-methyl-4-[5-(propan-2-yl)-1,2,4-oxadiazol-3-yl]-N-{2-[4-(propan-2-yl)piperazin-1-yl]phenyl}piperidine-1-carboxamide]: the “Agonist Activity (%)” value stood at 133%.

Consider `Cc1cc(C2(C)CCN(C(=O)Nc3c(Cl)cccc3N3CCN(C(C)C)CC3)CC2)no1` [Example 84, N-{2-chloro-6-[4-(propan-2-yl)piperazin-1-yl]phenyl}-4-methyl-4-(5-methyl-1,2-oxazol-3-yl)piperidine-1-carboxamide], for which the “Agonist Activity (%)” value is on record as 110%.

For the compound `Cc1nc(C2(C)CCN(C(=O)Nc3ccccc3N3CCN(C(C)C)CC3)CC2)no1` [Example 120, 4-methyl-4-(5-methyl-1,2,4-oxadiazol-3-yl)-N-{2-[4-(propan-2-yl)piperazin-1-yl]phenyl}piperidine-1-carboxamide], the “Agonist Activity (%)” value is given as 125%.

With `Cc1ccc(C2CCN(C(=O)Nc3c(F)cccc3C3CCN(C(C)CF)CC3)CC2)cc1` (stereo not drawn) [Example 137, N-{2-fluoro-6-[1-(1-fluoropropan-2-yl)piperidin-4-yl]phenyl}-4-(4-methylphenyl)piperidine-1-carboxamide], the “Agonist Activity (%)” value amounted to 126%.

For `COc1cccc(N2CCN(C(C)C)CC2)c1NC(=O)N1CCC(C)(c2noc(C(C)C)n2)CC1` [Example 21, N-{2-methoxy-6-[4-(propan-2-yl)piperazin-1-yl]phenyl}-4-methyl-4-[5-(propan-2-yl)-1,2,4-oxadiazol-3-yl]piperidine-1-carboxamide], the “Agonist Activity (%)” value is 156%.

Consider `CC(C)N1CC=C(c2cccc(F)c2NC(=O)N2CCC(C)(c3cc(C4CC4)on3)CC2)CC1` [Example 55, 4-(5-cyclopropyl-1,2-oxazol-3-yl)-N-{2-fluoro-6-[1-(propan-2-yl)-1,2,3,6-tetrahydropyridin-4-yl]phenyl}-4-methylpiperidine-1-carboxamide], for which the “Agonist Activity (%)” value is 154%.

With `CCN1CCN(c2ccccc2NC(=O)N2CCC(c3ccc(OC)cc3)CC2)CC1` [Example 1, N-[2-(4-Ethylpiperazin-1-yl)phenyl]-4-(4-methoxyphenyl)piperidine-1-carboxamide], the “Agonist Activity (%)” value amounted to 77%.

Take `CC(C)N1CC(Oc2cccc(Cl)c2NC(=O)N2CCC(C)(c3noc(C4CC4)n3)CC2)C1` [Example 160, N-(2-chloro-6-{[1-(propan-2-yl)azetidin-3-yl]oxy}phenyl)-4-(5-cyclopropyl-1,2,4-oxadiazol-3-yl)-4-methylpiperidine-1-carboxamide]: the “Agonist Activity (%)” value stood at 141%.
